Measured values as given in patent publication US20240392055A1, “UV/HEVL-FILTERING SILICONE HYDROGEL CONTACT LENSES” (Alcon Inc., priority 2023, published 2024).
In brackets after ≈: the same amount, converted by molar mass.

Experiments:
[1] = Solubility of HEVL-absorbing vinylic monomers in 1-propanol; type: physicochemical
From the text: It is also reported that there are correlations between lower melting points and compound solubility (Bathori, N. B. Acta Cryst., 2014, A70, C990). Changing the R group from —Cl to —CF3 should both shift the absorbance due to a greater electron withdrawing capability, and increase the solubility by reducing the ability of the compound to crystalize due to the bulky —CF3 group. […] UV23 would seem to be a good candidate because the —CF3 group further red shifts the absorbance and the solubility is much improved.

[2] = empirical substituent parameter of R group on benzotriazole ring; cited from earlier work
[3] = UV/visible absorption of dilute monomer solutions (absorption peak); type: physicochemical; conditions: HEVL absorption peak; dilute solution in PrOH
[4] = Absorption edge of visible light photoinitiators; type: physicochemical
From the text: Table 5 provides information about the photoinitiators used in this example.

[5] = Solubility of photoinitiator in lens formulation; type: physicochemical
Protocol: Four lens formulations without HEVL-absorbing benzotriazole-containing vinylic monomers are prepared to have the following compositions shown in Table 6. TTMB-Sn is not soluble in the formulation at room temperature but is soluble at 40° C. So, the photo-rheology experiment is conducted at 40° C. for this photoinitiator instead of the typical 25° C. (for other three photoinitiators).

SMILES | Solubility in PrOH [1] [mg/mL] | σpara [2] | Absorption Peak (nm) [3] [nm] | Abs. edge (nm) [4] [nm] | further results
C=CC(=O)OCCCOc1cc(-n2nc3ccc(C(F)(F)F)cc3n2)c(O)c(C(C)(C)C)c1 [UV23, 2-[2′-Hydroxy-3′-tert-butyl-5′-(3′-acryloyloxypropoxy)phenyl]-5-trifluoromethyl-2H-benzotriazole] | > 3.3 | 0.54 | 418 | – | –
C[CH2][Ge]([CH2]C)([C](=O)c1ccc(OC)cc1)[C](=O)c1ccc(OC)cc1 [BMBDE-Ge, Bis(4-methoxybenzoyl)diethylgermanium] | – | – | – | 470 | –
Cc1cc(C)c([C](=O)[Sn]([C](=O)c2c(C)cc(C)cc2C)([C](=O)c2c(C)cc(C)cc2C)[C](=O)c2c(C)cc(C)cc2C)c(C)c1 [TTMB-Sn, tetrakis(2,4,6-trimethylbenzoyl)stannane] | – | – | – | 510 | solubility in the formulation ([5]; 40° C.): soluble; solubility in the formulation ([5]; room temperature): not soluble
CCc1ccccc1[C](=O)[Ge]([C](=O)c1ccccc1CC)([C](=O)c1ccccc1CC)[C](=O)c1ccccc1CC [TEB-Ge, tetrakis(2-ethylbenzoyl)-germanium] | – | – | – | 490 | –
C[CH2][Ge]([CH2]C)([C](=O)c1ccccc1)[C](=O)c1ccccc1 [DBDE-Ge, dibenzoyldiethylgermanium] | – | – | – | 480 | –
C=C(C)C(=O)OCCCOc1cc(-n2nc3ccc(Cl)cc3n2)c(O)c(C(C)(C)C)c1 [UV28, 2-{2′-Hydroxy-3′-tert-butyl-5′-[3′-methacryloyloxypropoxy]phenyl}-5-chloro-2H-benzotriazole] | 1.5 (≈ 3.38 mM) | 0.23 | 416 | – | –
